These results are taken from patent publication US5622972A, “Method for treating a mammal infected with respiratory syncytial virus” (priority 1996, dated 1997).

Molecules are shown by their SMILES. “And” between values parts separate entries of the source, which are not always exact repeats. Equal values may be shown once. Read-outs that look alike come from different tables or passages of the source.

In general, EC50 refers to the concentration giving half of the maximal effect. What is called CC50 is the concentration giving 50% cytotoxicity.

In series [1] the test system is respiratory syncytial virus (RSV A2). Nature of the series: RSV inhibition assay: tetrazolium (MTT) based cell viability assay in RSV-infected HEp-2 cells (serial dilutions). As to conditions: for EC50: human respiratory syncytial virus. An excerpt: (§1) The tetrazolium based cell viability assay is based upon the ability of mitochondrial dehydrogenase which is present in viable cells to catalyze the reduction of a yellow tetrazolium salt known as MTT [3-(4,5-dimethylthiazol-2-yl)-2,5-diphenylthtiazolium bromide] to a dark blue/purple formazon product, generally as described by K. Rubino et al., J. Virological Methods, 39, 55-67 (1992)
(§2) Formazan is only slightly soluble in aqueous solutions, and therefore appears as dark cell-associated crystals. The crystals may be readily solublized in an organic solvent and the absorbance of the resulting blue/purple solution may be quantified using a multi-well plate spectrophotometer.
RSV infection results in a marked reduction in cell viability and thus a lowered rate of formazan production. […] The measurement of viral growth as a function of cell viability allows the assay to be used for establishing levels of compound cytotoxicity in uninfected cells within the same assay. Thus, the assay provides a rapid colorimetric method for measuring RSV specific cytopathic effect.
(§3) The HEp-2 cells and RSV strain A2 virus which are used in the assay are publicly available and were obtained from the American Tissue Culture Collection. HEp-2 cells correspond to ATCC accession no. CCL32; and Respiratory Syncytial Virus, strain A2 corresponds to ATCC accession no. VR-1302. Respiratory syncytial virus was grown (i.e., multiplied) and titered in HEp-2 cells.
(§4) The RSV inhibition assay was carried out as follows. The assay was performed in 96 well microtiter plates seeded with 2.5×10^4 cells per well. To provide a sufficient number of cells to seed the plates, stock cultures of HEp-2 cells were first grown in tissue culture flasks to about 80-100% confluency. The cell layer was washed with room temperature PBS (without calcium and magnesium) and then trypsinized (JRH Biosciences cat. #59-22877P) in a minimal volume of trypsin solution at 37° C. to detach them from the growth surface. Detached cells were resuspended and carefully dispersed in Minimal Essential Medium (MEM) (JRH Biosciences cat. #210-3510) containing 2% FBS (fetal bovine serum) and the concentration of viable cells was determined by trypan blue exclusion. Cell density was adjusted to 2.5×10^5 viable cells/ml by further dilution in MEM+2% FBS.
(§5) Test compound(s) and positive control (ribavirin) were added and serially diluted in the microtiter plate to the desired concentrations (8 replicates/compound/concentration plus 8 control wells/plate which received no compound).
(§6) The cell suspension was divided into a first portion to which respiratory syncytial virus (RSV A2) was added at a multiplicity of infection of 1, and a second portion to which no virus was added. The virus-infected cell suspension was mixed by low speed vortexing and 100 μl of the virus-infected cell suspension was immediately added to half of the wells in the 96 well plate (corresponding to 4 replicates of each compound dilution). 100 μl of the virus-free cell suspension was added to the other half of the wells in the microtiter plate (corresponding to the other 4 replicates for each compound and dilution).
The plates were incubated at 37° C., 5% CO2 for 5 to 6 days.
After the incubation period, MTT (Sigma Chemical Co., St. Louis, Mo., Cat. #M2128) was dissolved in serum free MEM to give a 3 mg/ml solution and 100 μl of MTT solution was added to each well and the plates further incubated for 2 hours at 37° C. The reaction was stopped by aspiration of the media to chemical waste, being careful not to remove the formazan crystals, and 200 μl of isopropanol was added to the wells to dissolve the crystals.

Series [2] is described as follows: Cytotoxicity in uninfected HEp-2 cells (MTT), same assay. The format is cell-based. As to conditions: human, hep-2 cells.
From the text: as §1, §2
(§7) RSV infection results in a marked reduction in cell viability and thus a lowered rate of formazan production. The assay method gives a very low absorbance value (practically zero) in wells which contain virus-infected cells and no compound or a compound which lacks anti-RSV activity. Compounds which inhibit RSV replication should prevent cell death and will therefore result in an increased intensity of color of the formazan solution. The measurement of viral growth as a function of cell viability allows the assay to be used for establishing levels of compound cytotoxicity in uninfected cells within the same assay. Thus, the assay provides a rapid colorimetric method for measuring RSV specific cytopathic effect.
as §3, §4, §5
as §6, with “and dilution). A multiplicity of infection equal to 1 was selected based on the observation this concentration of virus is just sufficient to produce a cytopathic effect that essentially eliminated MTT metabolism in infected, untreated cells during the time course of the assay (determined previously by a viral dilution assay).” for “and dilution).”
(§8) The plates were incubated at 37° C., 5% CO2 for 5 to 6 days. […]

The test system of series [3] is HEp-2 cells. Described as above. Format: cell-based. As to conditions: 5 day assay, drug added on day 1, 7200 min.
From the text: as §1, §2, §7, §3, §4, §5
as §6, with “and dilution). A multiplicity of infection equal to 1 was selected based on the observation this concentration of virus is just sufficient to produce a cytopathic effect that essentially eliminated MTT metabolism in infected, untreated cells during the time course of the assay (determined previously by a viral dilution assay).” for “and dilution).”
as §8

The nature of series [4]: Cytotoxicity in uninfected HEp-2 cells, single concentration of 200 μM replenished daily for 5 days. The conditions noted are these: human, solvent PBS (ribavirin: water). Format: cell-based.
From the text: as §1, §7, §3
The RSV inhibition assay was carried out as follows. The assay was performed in 96 well microtiter plates seeded with 2.5×10^4 cells per well. […] Detached cells were resuspended and carefully dispersed in Minimal Essential Medium (MEM) (JRH Biosciences cat. #210-3510) containing 2% FBS (fetal bovine serum) and the concentration of viable cells was determined by trypan blue exclusion. […]
The cell suspension was divided into a first portion to which respiratory syncytial virus (RSV A2) was added at a multiplicity of infection of 1, and a second portion to which no virus was added. […] A multiplicity of infection equal to 1 was selected based on the observation this concentration of virus is just sufficient to produce a cytopathic effect that essentially eliminated MTT metabolism in infected, untreated cells during the time course of the assay (determined previously by a viral dilution assay).
(§9) After the incubation period, MTT (Sigma Chemical Co., St. Louis, Mo., Cat. #M2128) was dissolved in serum free MEM to give a 3 mg/ml solution and 100 μl of MTT solution was added to each well and the plates further incubated for 2 hours at 37° C. […] The optical density of the formazan/isopropanol solution from each well was determined using a Dynatech MR5000 multiplate reader at 570 nm with a 630 nm reference. […]

The conditions of series [5]: cited from earlier work.
Series [6] deals with respiratory syncytial virus (RSV A2). Format: cell-based. As to conditions: human, hep-2 cells, 120 h, 200 µM.
From the text: as §1
RSV infection results in a marked reduction in cell viability and thus a lowered rate of formazan production. The assay method gives a very low absorbance value (practically zero) in wells which contain virus-infected cells and no compound or a compound which lacks anti-RSV activity. […]
The RSV inhibition assay was carried out as follows. […] Detached cells were resuspended and carefully dispersed in Minimal Essential Medium (MEM) (JRH Biosciences cat. #210-3510) containing 2% FBS (fetal bovine serum) and the concentration of viable cells was determined by trypan blue exclusion. […]
as §9

Turning to `CCCCN1C[C@H](O)[C@@H](O)[C@H](O)[C@H]1CO` [Ex. 6, 1,5-(Butylimino) -1,5-dideoxy-D-glucitol], the EC50 was 45 µM in series [1] (HEp-2, 120 h, HEp-2, solvent PBS, 5 day assay, drug replenished daily, read-out: ~EC50); 185 µM in series [1] (HEp-2, 120 h, HEp-2, solvent PBS, 5 day assay, drug replenished on day [number not given], read-out: ~EC50); 250 µM in series [1] (HEp-2, HEp-2, solvent DMSO, 6 day assay, drug added on day 1, extrapolated, read-out: ~EC50); 431 µM in series [1] (HEp-2, HEp-2, solvent PBS, 6 day assay, drug added on day 1, read-out: ~EC50). Also, the CTI in series [1] (solvent PBS, 5 day assay, drug added on day 1, from extrapolated CC50 and EC50) was 275.5; in series [1] (solvent PBS, 6 day assay, drug added on day 1, from extrapolated CC50, 7200 min), 21.8. Also, the CC50 at 120 h in series [2] (solvent DMSO, 5 day assay, drug added on day 1) was 100 µM; in series [2] (solvent DMSO, 6 day assay, drug added on day 1, extrapolated), 365 µM; in series [2] (solvent PBS, 5 day assay, drug added on day 1, extrapolated), 76200 µM; in series [2] (solvent PBS, 6 day assay, drug added on day 1, extrapolated), 9400 µM. The same compound returned a CC50 in series [3] (solvent DMSO) of 156 µM. This compound also returned a cytotoxicity at 120 h, 200 µM in series [4] of 17%.

In the case of `CCCCN1CC(OC(C)=O)C(OC(C)=O)C(OC(C)=O)C1COC(C)=O` [Ex. 7, 1,5-(Butylimino)-1,5-dideoxy-D-glucitol, tetraacetate], the cytotoxicity at 120 h, 200 µM in series [4] is 11%. The “enzymatic conversion in vivo of prodrug” value in series [5] is “enzymatically converted in vivo to the compound of Ex. 6”.

In the case of `OCC1C(O)C(O)C(O)CN1CCCc1ccccc1` [compound 43, 1,5-(3-Phenylpropylimino)-1,5-dideoxy-D-glucitol], the cytotoxicity at 120 h, 200 µM in series [4] was determined as 10%.

As for `NC(=O)c1ncn([C@@H]2O[C@H](CO)[C@@H](O)[C@H]2O)n1` [ribavirin, 1-beta-D-ribofuranosyl-1H-1,2,4-triazole-3-carboxamide], the EC50 in series [1] (HEp-2, 120 h, HEp-2, solvent water, 5 day assay, drug replenished daily) was 0.1 µM; in series [1] (HEp-2, 120 h, HEp-2, solvent water, 5 day assay, drug replenished on day [number not given]) it was 2.6 µM; in series [1] (HEp-2, HEp-2, solvent water, 6 day assay, drug added on day 1), 19.1 µM. In addition, the CC50 at 120 h in series [2] (solvent water, 5 day assay, drug added on day 1) stood at 38.3 µM; in series [2] (solvent water, 5 day assay, drug replenished daily), 40 µM; in series [2] (solvent water, 5 day assay, drug replenished on day [number not given]) it was 20.4 µM; in series [2] (solvent water, 6 day assay, drug added on day 1), 179 µM. For the same compound, the CC50 in series [3] (solvent water) is 32.4 µM and 62.8 µM and 52.4 µM. For the same compound, the “% CELL PROTECTION / % CYTOTOXICITY (CTI)” value in series [6] is on record as 1.6. The cytotoxicity at 120 h, 200 µM in series [4] was 65%.
